# Laboratory results: the supplement of paper PMC10920090
# How the values were obtained:
# [1] = system: MDA-MB-231; test: drug sensitivity score (DSS), cytotoxicity CellTox Green; higher = more cytotoxic; extreme values may be limits of the assay; details: 72 h
# [2] = system: MDA-MB-231; test: drug sensitivity score (DSS), cell viability CellTiter-Glo; higher = more sensitive; extreme values may be limits of the assay; details: 72 h
# 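Wherever drug sensitivity score (DSS), cytotoxicity CellTox Green is given: DSS summarises each dose–response curve by combining IC50, EC50, maximal inhibition and efficacy across drug concentrations.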
SMILES,drug sensitivity score ([1]; shRNA: shPPFIA1_1),drug sensitivity score ([1]; shRNA: shScramble),drug sensitivity score ([2]; shRNA: shPPFIA1_1),drug sensitivity score ([2]; shRNA: shScramble)
NC(=O)c1cccc2cn(-c3ccc([C@@H]4CCCNC4)cc3)nc12 [Niraparib],0 DSS,0 DSS,2.8 DSS,1.9 DSS
O=C(c1ccc(C(=O)N2CCC(N3CCCC3)CC2)c(Nc2ccccc2)c1)N1CCC(N2CCCC2)CC1 [UNC1215],0 DSS,0 DSS,0.4 DSS,0.3 DSS
C[C@]12C=CC(=O)C=C1CC[C@@H]1[C@@H]2[C@@H](O)C[C@@]2(C)[C@H]1CC[C@]2(O)C(=O)CO [Prednisolone],0 DSS,0 DSS,0 DSS,0 DSS
CCOC(=O)CCNc1cc(N2CCc3ccccc3CC2)nc(-c2ccccn2)n1 [GSK-J4],7.4 DSS,8.3 DSS,10.2 DSS,11.3 DSS
C=CCN(/C=C1/C(=O)O[C@H](COC)[C@@]2(C)C1=C(O)C(=O)C1=C2[C@H](OC(C)=O)C[C@]2(C)C(=O)CC[C@@H]12)CC=C [Sonolisib],0 DSS,0 DSS,0 DSS,0 DSS
CN(C)C[C@@H]1CCn2cc(c3ccccc32)C2=C(C(=O)NC2=O)c2cn(c3ccccc23)CCO1 [Ruboxistaurin],3.8 DSS,5.5 DSS,7.2 DSS,7 DSS
C=CC(=O)N1CCC(Oc2cc3c(Nc4ccc(Cl)c(Cl)c4F)ncnc3cc2OC)CC1 [Poziotinib],0 DSS,0 DSS,3.1 DSS,0 DSS
Cc1cc(Nc2cc(N3CCN(C)CC3)nc(/C=C/c3ccccc3)n2)n[nH]1 [ENMD-2076],2 DSS,0.9 DSS,3.8 DSS,8.8 DSS
COCC(=O)NC/C=C/c1ccc2ncnc(Nc3ccc(Oc4ccc(C)nc4)c(C)c3)c2c1,2.2 DSS,0 DSS,0 DSS,0.3 DSS
C[C@]12CC[C@@H]3c4ccc(OC(=O)N(CCCl)CCCl)cc4CC[C@H]3[C@@H]1CC[C@@H]2O [Estramustine],0 DSS,0 DSS,0 DSS,0 DSS
CC1(C)CNc2cc(NC(=O)c3cccnc3NCc3ccncc3)ccc21 [Motesanib],0 DSS,0.3 DSS,0 DSS,0 DSS
COc1ccc(COc2cc3oc(=O)c4cc(C(C)O)ccc4c3cc2OC)cc1 (stereo unspecified) [Palomid-529],0 DSS,0 DSS,0 DSS,0 DSS
NS(=O)(=O)NCCNc1nonc1/C(=N/O)Nc1ccc(F)c(Br)c1 [Epacadostat],0 DSS,0 DSS,0 DSS,0 DSS
C[C@@H](Oc1cc(-n2cnc3ccc(CN4CCN(C)CC4)cc32)sc1C(N)=O)c1ccccc1C(F)(F)F,10 DSS,7 DSS,1.5 DSS,5.2 DSS
Cc1cccc(CC(=O)N2CCc3c2ccc(-c2cn(C)c4ncnc(N)c24)c3F)n1,15 DSS,0 DSS,0 DSS,0.3 DSS
FC(F)(F)c1ccc(/C=C/c2nc(COc3ccc(CCCCn4ccnn4)cc3)co2)cc1 [Mubritinib],0 DSS,0 DSS,2.1 DSS,2 DSS
CCC(C)n1ncn(-c2ccc(N3CCN(c4ccc(OCC5COC(Cn6cncn6)(c6ccc(Cl)cc6Cl)O5)cc4)CC3)cc2)c1=O (stereo unspecified) [Itraconazole],0 DSS,0 DSS,4.8 DSS,5.6 DSS
N#CC(c1ccnc(OCc2ccc(CN3CCOCC3)cc2)n1)c1nc2ccccc2s1 (stereo unspecified) [Bentamapimod],0 DSS,0 DSS,1.6 DSS,3.7 DSS
Nc1nc(Cl)nc2c1ncn2[C@H]1C[C@H](O)[C@@H](CO)O1 [Cladribine],0 DSS,0 DSS,0 DSS,3.3 DSS
CCNC(=O)C[C@@H]1N=C(c2ccc(Cl)cc2)c2cc(OC)ccc2-n2c(C)nnc21,0 DSS,0 DSS,0 DSS,6.2 DSS
O=C(CCCCCCC(=O)Nc1ccccc1)NO [Vorinostat],6.9 DSS,2.5 DSS,2.4 DSS,6.6 DSS
Nc1cc(C(F)(F)F)c(-c2cc(N3CCOCC3)nc(N3CCOCC3)n2)cn1 [Buparlisib],1.4 DSS,0 DSS,0.9 DSS,6.2 DSS

SMILES,drug sensitivity score ([1]; shRNA: shPPFIA1_1),drug sensitivity score ([1]; shRNA: shScramble),drug sensitivity score ([2]; shRNA: shPPFIA1_1),drug sensitivity score ([2]; shRNA: shScramble)
Nc1nccc(-c2c(-c3ccc(F)cc3)ncn2C2CCCCC2)n1,0 DSS,0 DSS,0 DSS,0 DSS
Cc1ccc(C(=O)Nc2ccc(Oc3cc4cnn(C)c4cc3-c3cn[nH]c3)c(F)c2)c(=O)n1-c1ccc(F)cc1 [Merestinib],0 DSS,0 DSS,9 DSS,0 DSS
CC[C@H](Nc1ncnc2[nH]cnc12)c1nc2cccc(F)c2c(=O)n1-c1ccccc1 [Idelalisib],0 DSS,0 DSS,0 DSS,0.9 DSS
CO[C@H]1/C=C\C=C(/C)C(=O)NC2=CC(=O)C(NCCN(C)C)=C(C[C@@H](C)C[C@H](OC)[C@H](O)[C@@H](C)/C=C(\C)[C@@H]1OC(N)=O)C2=O [Alvespimycin],0 DSS,0.6 DSS,4.8 DSS,7.2 DSS
CC[C@H](C)C(=O)O[C@H]1C[C@@H](C)C=C2C=C[C@H](C)[C@H](CC[C@@H]3C[C@@H](O)CC(=O)O3)[C@H]21 [Lovastatin],0 DSS,0 DSS,0 DSS,0 DSS
CCc1cnn2c(NCc3ccc[n+]([O-])c3)cc(N3CCCC[C@H]3CCO)nc12 [Dinaciclib],15.4 DSS,8.8 DSS,13.8 DSS,18.7 DSS
C[C@]12O[C@H](C[C@]1(O)CO)n1c3ccccc3c3c4c(c5c6ccccc6n2c5c31)CNC4=O [Lestaurtinib],0 DSS,0 DSS,1.1 DSS,4.9 DSS
COc1cc2nccc(Oc3ccc(NC(=O)NC4CC4)c(Cl)c3)c2cc1C(N)=O [Lenvatinib],0 DSS,0 DSS,0 DSS,0 DSS
O=NN(CCCl)C(=O)NC1CCCCC1 [Lomustine],0 DSS,0 DSS,0 DSS,0 DSS
O=C(O)c1ccc2c(c1)nc(Nc1cccc(Cl)c1)c1ccncc12 [Silmitasertib],0 DSS,0 DSS,0 DSS,3.5 DSS
C=CC(=O)Nc1cccc(Nc2nc(Nc3ccc(N4CCN(C(C)=O)CC4)cc3OC)ncc2C(F)(F)F)c1 [Rociletinib],0 DSS,0 DSS,0 DSS,2.8 DSS
O=[N+]([O-])c1ccc2c(c1)S(=O)(=O)C=C2 [Stattic],4.4 DSS,7.2 DSS,6.6 DSS,9.4 DSS
COc1cc2c(Oc3ccc4[nH]c(C)cc4c3F)ncnc2cc1OCCCN1CCCC1 [Cediranib],0 DSS,0 DSS,7 DSS,7.5 DSS
CCCNC(=O)Nc1ccc(Oc2ncnc3cc(OC)c(OC)cc23)cc1Cl [KRN-633],0 DSS,0 DSS,0 DSS,0.9 DSS
CC(C)(O)CC(=O)NCCn1ccc2ncnc(Nc3ccc(Oc4cccc(C(F)(F)F)c4)c(Cl)c3)c21 [TAK-285],0 DSS,0 DSS,0.9 DSS,0 DSS
CC(C)(C)Cn1c(N)nc2ccc(-c3[nH]c(C(C)(C)C)nc3-c3ccc(F)cc3)nc21 [Ralimetinib],0 DSS,0 DSS,0.2 DSS,0 DSS
CC[C@@H]1C(=O)N(C)c2cnc(Nc3ccc(C(=O)N[C@H]4CC[C@H](N5CCN(CC6CC6)CC5)CC4)cc3OC)nc2N1C(C)C [Volasertib],0 DSS,0 DSS,0 DSS,6.6 DSS
CC[C@@H]1C(=O)N(C)c2cnc(Nc3ccc(C(=O)NC4CCN(C)CC4)cc3OC)nc2N1C1CCCC1 [BI 2536],0.3 DSS,0 DSS,0 DSS,11.3 DSS
CNC(=O)c1ccc(N2C(=S)N(c3cnc(C#N)c(C(F)(F)F)c3)C(=O)C23CCC3)cc1F [ARN 509],0 DSS,0 DSS,0 DSS,0.4 DSS
CN(C)CCOc1ccc(/C(=C(/CCCl)c2ccccc2)c2ccccc2)cc1 [Toremifene],4.6 DSS,1.8 DSS,2.4 DSS,1.3 DSS
CCc1c2c(nc3ccc(OC(=O)N4CCC(N5CCCCC5)CC4)cc13)-c1cc3c(c(=O)n1C2)COC(=O)[C@]3(O)CC [Irinotecan],0 DSS,0 DSS,0 DSS,0.3 DSS
O=c1cc(N2CCOCC2)oc2c(-c3ccccc3)cccc12,0.1 DSS,2.4 DSS,1.7 DSS,0 DSS

SMILES,drug sensitivity score ([1]; shRNA: shPPFIA1_1),drug sensitivity score ([1]; shRNA: shScramble),drug sensitivity score ([2]; shRNA: shPPFIA1_1),drug sensitivity score ([2]; shRNA: shScramble)
COc1cc(N2CCC(N3CCN(C)CC3)CC2)ccc1Nc1ncc(Cl)c(Nc2ccccc2P(C)(C)=O)n1 [Brigatinib],1.8 DSS,3.6 DSS,6.4 DSS,0.7 DSS
NC(=O)NO [Hydroxyurea],0 DSS,0 DSS,0 DSS,0 DSS
O=C(c1ccc(OCCN2CCCCC2)cc1)c1c(-c2ccc(O)cc2)sc2cc(O)ccc12 [Raloxifene],0.4 DSS,0 DSS,3.5 DSS,3.1 DSS
CNC(=O)c1cc(Oc2ccc(NC(=O)Nc3ccc(Cl)c(C(F)(F)F)c3)cc2)ccn1 [Sorafenib],0 DSS,0 DSS,0 DSS,0 DSS
Cc1cc(Nc2nc(N[C@@H](C)c3ncc(F)cn3)ncc2Cl)[nH]n1 [AZD1480],0 DSS,0 DSS,0 DSS,0 DSS
OC[C@H]1O[C@@H](n2cnc3c2N=CNC[C@H]3O)C[C@@H]1O [Pentostatin],0 DSS,0 DSS,0.5 DSS,0.2 DSS
CC(C)C[C@H](NC(=O)[C@H](CCc1ccccc1)NC(=O)CN1CCOCC1)C(=O)N[C@@H](Cc1ccccc1)C(=O)N[C@@H](CC(C)C)C(=O)[C@@]1(C)CO1 [Carfilzomib],21.9 DSS,22.1 DSS,16.5 DSS,21.4 DSS
COc1ccc(S(=O)(=O)Nc2cccnc2Nc2ccc(O)cc2)cc1 [ABT-751],2.1 DSS,0.1 DSS,0 DSS,4.5 DSS
CN(C)c1nc(N(C)C)nc(N(C)C)n1 [Altretamine],0 DSS,0 DSS,0 DSS,0 DSS
CCN1CCN(Cc2ccc(-c3cc4c(N[C@H](C)c5ccccc5)ncnc4[nH]3)cc2)CC1 [NVP-AEE788],0 DSS,0 DSS,0.4 DSS,0.8 DSS
O=C(Nc1ccc(OC(F)(F)F)cc1)c1sccc1NCc1ccnc2ccccc12 [OSI-930],0 DSS,0.9 DSS,4.5 DSS,8 DSS
CCCCCCCCc1ccc(CCC(N)(CO)CO)cc1 [Fingolimod],6.7 DSS,6.8 DSS,7.5 DSS,8 DSS
CN(c1ccccc1CNc1nc(Nc2ccc3c(c2)CC(=O)N3)ncc1C(F)(F)F)S(C)(=O)=O,4.1 DSS,4 DSS,2.3 DSS,5.3 DSS
Cc1c(N)nc([C@H](CC(N)=O)NC[C@H](N)C(N)=O)nc1C(=O)N[C@H](C(=O)N[C@H](C)[C@@H](O)[C@H](C)C(=O)N[C@H](C(=O)NCCc1nc(-c2nc(C(=O)NCCC[S+](C)C)cs2)cs1)[C@@H](C)O)[C@@H](OC1OC(CO)C(O)C(O)C1OC1OC(CO)C(O)C(OC(N)=O)C1O)c1cnc[nH]1 (stereo partly specified) [Bleomycin],0.1 DSS,0 DSS,0 DSS,3.5 DSS
Cc1ccc(NC(=O)c2ccc(CN3CCN(C)CC3)cc2)cc1Nc1nc(-c2cccnc2)cs1 [Masitinib],0.2 DSS,0.1 DSS,0.2 DSS,2.9 DSS
CC[C@@]1(O)C(=O)OCc2c1cc1n(c2=O)Cc2cc3ccccc3nc2-1 [Camptothecin],2 DSS,0.7 DSS,0.8 DSS,10.4 DSS
O=C(NC[C@H](O)CN1CCc2ccccc2C1)c1cc(NC2COC2)ncn1,0 DSS,0 DSS,0.5 DSS,1.8 DSS
c1cc(CN2CCCNCCNCCCNCC2)ccc1CN1CCCNCCNCCCNCC1 [Plerixafor],0 DSS,0 DSS,0 DSS,0 DSS
CCCCNc1ncc(C(=O)NCc2ccc(-n3ccnc3)cc2)c(NC2CCC(O)CC2)n1 (stereo unspecified) [UNC2881],0 DSS,0 DSS,0 DSS,0.5 DSS
CC(C)Cn1cnc2c(N)nc3ccccc3c21 [Imiquimod],0.9 DSS,0 DSS,0 DSS,2.7 DSS
